Results reported in PMC12430278, “A Simple and Reliable Method for the Determination of Isorhapontigenin in Murine Biological Matrices: Application in a Tissue Distribution Study” (Molecules, 2025).
One block for each compound: values may come before it.

What was measured:
[1] = Stability of stock solutions; assay type: physicochemical; details: DMSO stock solution, stock solution 0.40 mg/mL, n = 6, read-out: Remaining (%, Mean ± SD)
Protocol: Stock solutions of ISO and trans-stilbene (internal standard, IS) were prepared in DMSO at a final concentration of 1 mg/mL. These solutions were stored at −20 °C and protected from light. The calibration standard and quality control (QC) samples were prepared by serial dilution of the ISO stock solution with pooled blank murine plasma or respective tissue homogenate.
The stability of ISO was evaluated under various storage conditions. Stock solution stability was assessed after storage at room temperature (25 °C) and –20 °C. The stability of ISO in plasma was examined under the following conditions: short-term storage (25 °C for 24 h), long-term storage (–80 °C for 52 days), three freeze–thaw cycles, and post-preparative stability (samples kept in an autosampler at 4 °C for more than 24 h). As it is difficult to evaluate ISO stability directly in tissues, only the short-term stability in tissue homogenates was assessed (6 h on ice). Similarly, post-preparative stability in processed tissue samples was assessed using liver homogenate as a representative, due to the complexity of the hepatic matrix. Stability was considered acceptable if 85–115% of the initial ISO concentration remained.

[2] = cited from earlier work; for Oral absorption: in vivo
[3] = enzymatic-hydrolysis approach; cited from earlier work

- remaining at 24 h, 0.4 mg/mL ([1]; stored at room temperature for 24 h): 94.7 ± 0.3%
- remaining at 480 h, 0.4 mg/mL ([1]; stored at −20 °C for 20 days): 105.3 ± 0.7%
SMILES: C(=C\c1ccccc1)/c1ccccc1 [Internal standard, trans-stilbene, reference compound]

SMILES: Oc1cc(O)cc(/C=C/c2ccc(O)cc2O)c1 [oxyresveratrol]
- Oral absorption [2]: rapid oral absorption

SMILES: Oc1cc(O)cc(/C=C/c2ccc(O)c(O)c2)c1 [piceatannol, reference compound]
- Oral absorption [2]: rapid oral absorption
- Sulfation [3]: extensive sulfation

SMILES: COc1cc(/C=C/c2ccc(O)cc2)cc(OC)c1 [pterostilbene]
- Brain bioavailability ([2]; compared with ISO's limited brain penetration after oral administration): significantly improved brain bioavailability
